Reference: patent publication US12371430B2, “5-morpholin-4-yl-pyrazolo[4,3-b]pyridine derivatives” (Merck Patent GmbH, priority 2018, dated 2025)
Blank lines part the entries; values can stand above or below the molecule they belong to.

Experiments:
ATR/ATRIP = ATR/ATRIP (Homo sapiens (Human), UniProt Q13535); experiment: ATR/ATRIP kinase assay (TR-FRET, p53 Ser15 phosphorylation); assay type: biochemical; conditions: 0.5 μM ATP, 50 nM p53
Method: ATR/ATRIP Kinase Assay—Measurement of ATR/ATRIP Inhibition
The IC50 value was determined by an ATR/ATRIP enzymatic assay. The assay comprises two steps: the enzymatic reaction and the detection step. First, a mixture of ATR/ATRIP protein (Ataxia Telangiectasia and Rad3-related protein/ATR interacting protein), the compound in question at different concentrations, p53 as substrate protein and adenosine triphosphate (ATP) are incubated in assay buffer. ATR phosporylates p53 at Ser15 and other residues. The amount of phosphorylated p53 is then detected using specific antibodies and the TR-FRET assay technology.
In detail: The ATR/ATRIP enzymatic assay is performed as a TR-FRET-(HTRF™, Cisbio Bioassays) based 384-well assay. In a first step, purified human recombinant ATR/ATRIP (human ATR, full length, GenBank ID: NM_001184.3, and human ATRIP, full length, GenBank ID AF451323.1, co-expressed in a mammalian cell line) is incubated in assay buffer for 15 minutes at 22° C. with test compound at different concentrations or without test compound (as a negative control). The assay buffer contains 25 mM HEPES pH 8.0, 10 mM Mg(CH3COO)2, 1 mM MnCl2, 0.1% BSA, 0.01% Brij® 35, and 5 mM dithiothreitol (DTT). An Echo 555 (Labcyte) is used for dispensing of compound solutions. Then, in a second step, purified human recombinant cmyc-tagged p53 (human p53, full length, GenBank ID: BC003596, expressed in Sf21 insect cells) and ATP are added and the reaction mixture is incubated for 25-35 minutes, typically 25 minutes, at 22° C. The pharmacologically relevant assay volume is 5 μl. The final concentrations in the assay during incubation of the reaction mixture are 0.3-0.5 nM, typically 0.3 nM, ATR/ATRIP, 50 nM p53, and 0.5 μM ATP. The enzymatic reaction is stopped by the addition of EDTA. The generation of phosphorylated p53 as a result of the ATR mediated reaction in the presence of ATP is detected by using specific antibodies [labeled with the fluorophores europium (Eu) as donor and d2 as acceptor (Cisbio Bioassays)] enabling FRET. For this purpose, 2 μl of antibody-containing stop solution (12.5 mM HEPES pH 8.0, 125 mM EDTA, 30 mM sodium chloride, 300 mM potassium fluoride, 0.006% Tween-20, 0.005% Brij® 35, 0.21 nM anti-phospho-p53(Ser15)-Eu antibody, 15 nM anti-cmyc-d2 antibody) are added to the reaction mixture. Following signal development for 2 h the plates are analyzed in an EnVision (PerkinElmer) microplate reader using the TRF mode with laser excitation. Upon excitation of the donor europium at 340 nm the emitted fluorescence light of the acceptor d2 at 665 nm as well as from the donor Eu at 615 nm are measured. The amount of phosphorylated p53 is directly proportional to the ratio of the amounts of emitted light i.e. the ratio of the relative fluorescence units (rfu) at 665 nm and 615 nm. Data are processed employing the Genedata Screener software. In particular, IC50 values are determined in the usual manner by fitting a dose-response curve to the data points using nonlinear regression analysis. • IC50=half maximal inhibitory concentration • ATP=Adenosine triphosphate • TR-FRET=Time-Resolved Fluorescence Resonance Energy Transfer • HTRF®=Homogeneous Time Resolved Fluorescence • HEPES=2-(4-(2-Hydroxyethyl)-1-piperazinyl)-ethanesulfonic acid • Mg(CH3COO)2=Magnesium acetate • MnCl2=Manganese(II)-chloride • BSA=Bovine Serum Albumin • EDTA=Ethylendiamine Tetraacetate • TRF=Time Resolved Fluorescence pCHK1 Cellular Assay

[1] = tested on: phosphorylation of Chk1 (Ser 345) in HT29 colon adenocarcinoma cells; experiment: pCHK1 cellular assay; assay type: cell-based; conditions: Homo sapiens, HT-29, hydroxyurea 3 mM, 4 h
Text: Chk1 kinase acts downstream of ATR and has a key role in DNA damage checkpoint control. Activation of Chk1 involves phosphorylation of Ser317 and Ser345 (regarded as the preferential target for phosphorylation/activation by ATR) and occurs in response to blocked DNA replication and certain forms of genotoxic stress. Phosphorylation at Ser 345 serves to localize Chk1 to the nucleus following checkpoint activation.
This assay measures a decrease in phosphorylation of Chk1 (Ser 345) in HT29 colon adenocarcinoma cells following treatment with compound and hydroxyurea (which promotes fork stalling because of dNTP depletion) and using an immunocytochemical procedure and high content imaging.
For the assay HT29 cells are plated in culture medium (DMEM high Glucose (no phenol red), 2 mM Glutamax, 1 mM Pyruvate, 10% FCS into Greiner 384 well plates, black, μclear #781090 (2500 cells/well/30 μl) and incubated for at least 20 hours at 37° C., 10% CO2 and 90% rH. Diluted test compounds (1 nM-30 μM final) and hydroxyurea (3 mM final) are added simultaneously and cells are incubated for 4 h at 37° C. After fixation/prmeabilisation with 100% MeOH (−20° C. cold) and permeabilisation with 0.2% Triton X-100 a complete immunocytochemical procedure is performed using a specific anti-pChk1 antibody (Cell Signaling, #2348BF) and fluorescently labelled secondary antibody (Alexa Fluor® 488 goat anti-rabbit F(ab′)2 fragment, Invitrogen A11070) and parallel nuclear staining for cell counting.
The nuclear localised pChk1 signal is detected on an ImageXpress Ultra confocal high content reader and reported as % positive cells (nuclei).

Chain of ATR/ATRIP (Q13535 whole entry): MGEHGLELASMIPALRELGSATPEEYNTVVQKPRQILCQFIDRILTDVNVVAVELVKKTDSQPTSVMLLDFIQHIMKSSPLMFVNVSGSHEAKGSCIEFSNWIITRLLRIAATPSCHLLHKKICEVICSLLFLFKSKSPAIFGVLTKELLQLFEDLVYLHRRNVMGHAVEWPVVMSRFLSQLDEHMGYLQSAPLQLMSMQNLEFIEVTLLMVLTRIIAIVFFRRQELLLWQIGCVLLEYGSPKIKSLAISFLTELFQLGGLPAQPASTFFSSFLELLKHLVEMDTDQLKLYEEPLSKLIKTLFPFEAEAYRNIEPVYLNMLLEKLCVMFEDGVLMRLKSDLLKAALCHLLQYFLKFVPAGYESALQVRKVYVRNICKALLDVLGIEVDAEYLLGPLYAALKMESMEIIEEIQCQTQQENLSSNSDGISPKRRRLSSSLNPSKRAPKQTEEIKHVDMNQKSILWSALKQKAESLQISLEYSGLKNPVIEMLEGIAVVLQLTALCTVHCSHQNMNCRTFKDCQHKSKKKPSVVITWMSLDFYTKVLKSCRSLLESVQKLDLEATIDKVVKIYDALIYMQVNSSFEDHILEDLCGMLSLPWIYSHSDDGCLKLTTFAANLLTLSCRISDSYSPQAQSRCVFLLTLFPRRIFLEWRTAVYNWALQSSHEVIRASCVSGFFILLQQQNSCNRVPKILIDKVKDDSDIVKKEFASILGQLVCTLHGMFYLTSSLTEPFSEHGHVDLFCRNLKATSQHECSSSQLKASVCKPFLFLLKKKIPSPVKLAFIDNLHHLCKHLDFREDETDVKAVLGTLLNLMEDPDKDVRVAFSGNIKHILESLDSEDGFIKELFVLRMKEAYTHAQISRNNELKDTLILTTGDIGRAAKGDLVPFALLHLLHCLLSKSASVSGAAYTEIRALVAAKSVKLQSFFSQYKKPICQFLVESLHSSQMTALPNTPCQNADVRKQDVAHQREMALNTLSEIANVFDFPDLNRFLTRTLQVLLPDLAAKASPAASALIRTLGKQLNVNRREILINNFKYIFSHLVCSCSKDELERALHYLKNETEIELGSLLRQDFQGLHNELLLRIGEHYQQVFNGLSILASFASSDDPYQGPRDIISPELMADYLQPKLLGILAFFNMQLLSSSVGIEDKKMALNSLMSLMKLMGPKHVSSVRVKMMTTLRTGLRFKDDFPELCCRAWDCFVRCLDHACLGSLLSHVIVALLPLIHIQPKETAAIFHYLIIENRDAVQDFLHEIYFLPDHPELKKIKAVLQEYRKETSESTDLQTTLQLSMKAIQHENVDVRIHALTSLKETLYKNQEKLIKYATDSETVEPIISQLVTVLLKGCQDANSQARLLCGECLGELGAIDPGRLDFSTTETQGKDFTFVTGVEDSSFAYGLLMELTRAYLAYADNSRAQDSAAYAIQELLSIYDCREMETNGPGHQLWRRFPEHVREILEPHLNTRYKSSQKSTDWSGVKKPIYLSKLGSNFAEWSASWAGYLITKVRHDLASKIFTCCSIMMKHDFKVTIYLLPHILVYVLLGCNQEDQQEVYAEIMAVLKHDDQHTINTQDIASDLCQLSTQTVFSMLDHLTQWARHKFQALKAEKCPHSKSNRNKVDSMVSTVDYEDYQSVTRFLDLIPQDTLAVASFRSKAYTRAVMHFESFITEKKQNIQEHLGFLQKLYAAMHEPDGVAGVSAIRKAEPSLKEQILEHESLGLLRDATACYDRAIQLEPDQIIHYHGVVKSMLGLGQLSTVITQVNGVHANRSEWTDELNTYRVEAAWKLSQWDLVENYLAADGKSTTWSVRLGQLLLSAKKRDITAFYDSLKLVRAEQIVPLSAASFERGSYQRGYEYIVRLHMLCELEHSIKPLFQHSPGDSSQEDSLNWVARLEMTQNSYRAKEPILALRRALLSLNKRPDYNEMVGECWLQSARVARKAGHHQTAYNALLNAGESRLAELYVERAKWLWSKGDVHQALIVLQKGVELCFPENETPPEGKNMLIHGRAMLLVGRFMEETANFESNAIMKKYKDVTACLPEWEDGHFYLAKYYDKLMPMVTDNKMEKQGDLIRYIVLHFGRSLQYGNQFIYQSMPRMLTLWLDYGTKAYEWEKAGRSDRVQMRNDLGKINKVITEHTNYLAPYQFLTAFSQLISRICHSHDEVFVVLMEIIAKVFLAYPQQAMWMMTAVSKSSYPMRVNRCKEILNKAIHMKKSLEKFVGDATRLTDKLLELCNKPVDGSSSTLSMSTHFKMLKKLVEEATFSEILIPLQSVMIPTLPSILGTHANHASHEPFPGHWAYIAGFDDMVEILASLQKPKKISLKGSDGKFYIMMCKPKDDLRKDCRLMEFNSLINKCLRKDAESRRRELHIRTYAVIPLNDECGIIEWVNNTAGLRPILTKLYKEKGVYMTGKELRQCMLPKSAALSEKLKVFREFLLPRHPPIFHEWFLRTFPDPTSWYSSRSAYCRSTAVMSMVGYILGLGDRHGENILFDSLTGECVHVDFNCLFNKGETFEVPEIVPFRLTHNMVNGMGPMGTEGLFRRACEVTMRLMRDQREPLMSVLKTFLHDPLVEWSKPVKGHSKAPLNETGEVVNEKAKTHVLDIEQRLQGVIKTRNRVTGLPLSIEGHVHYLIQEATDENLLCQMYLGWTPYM
Chain of ATR/ATRIP (Q8WXE1 whole entry partner): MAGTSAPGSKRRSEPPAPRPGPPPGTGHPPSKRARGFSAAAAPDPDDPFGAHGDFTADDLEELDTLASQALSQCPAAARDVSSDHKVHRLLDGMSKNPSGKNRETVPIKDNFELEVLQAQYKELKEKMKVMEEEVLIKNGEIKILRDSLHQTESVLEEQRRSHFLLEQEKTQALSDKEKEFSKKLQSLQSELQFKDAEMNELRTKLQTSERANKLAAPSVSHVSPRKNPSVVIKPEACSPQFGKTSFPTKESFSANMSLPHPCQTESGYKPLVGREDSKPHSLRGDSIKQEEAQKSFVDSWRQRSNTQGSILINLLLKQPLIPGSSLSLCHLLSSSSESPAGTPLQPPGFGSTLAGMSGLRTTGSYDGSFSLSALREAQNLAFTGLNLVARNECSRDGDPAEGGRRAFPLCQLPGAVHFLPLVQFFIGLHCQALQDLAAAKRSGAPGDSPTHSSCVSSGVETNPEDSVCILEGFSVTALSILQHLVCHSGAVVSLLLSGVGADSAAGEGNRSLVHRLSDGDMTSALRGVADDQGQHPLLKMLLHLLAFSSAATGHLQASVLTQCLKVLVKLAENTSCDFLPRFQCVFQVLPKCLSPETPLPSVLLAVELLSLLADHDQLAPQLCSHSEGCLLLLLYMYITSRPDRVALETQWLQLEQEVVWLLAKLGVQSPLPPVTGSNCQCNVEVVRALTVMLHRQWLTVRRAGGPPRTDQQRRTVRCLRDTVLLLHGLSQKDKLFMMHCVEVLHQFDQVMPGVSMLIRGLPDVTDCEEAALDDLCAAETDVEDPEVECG

SMILES: C[C@@H]1COCCN1c1cc(C(N)=O)c2c(n1)c(-c1cc[nH]n1)nn2C [Compound 32, 1-Methyl-5-((R)-3-methyl-morpholin-4-yl)-3-(1H-pyrazol-3-yl)-1H-pyrazolo[4,3-b]pyridine-7-carboxylic acid amide]
IC50 (ATR/ATRIP): 20 nM
IC50 [1]: 1000 to 10000 nM

SMILES: Cc1cccnc1-c1cc(N2CCOC[C@H]2C)nc2c(-c3cc[nH]n3)nn(C)c12 [Compound 62, (3R)-3-Methyl-4-[1-methyl-7-(3-methylpyridin-2-yl)-3-(1H-pyrazol-3-yl)-1H-pyrazolo[4,3-b]pyridin-5-yl]morpholine]
IC50 (ATR/ATRIP): 22 nM
IC50 [1]: 1000 to 10000 nM

SMILES: C[C@@H]1COCCN1c1cc(CO)c2c(n1)c(-c1cc[nH]n1)nn2C [Compound 24, [1-Methyl-5-((R)-3-methyl-morpholin-4-yl)-3-(1H-pyrazol-3-yl)-1H-pyrazolo[4,3-b]pyridin-7-yl]-methanol]
IC50 (ATR/ATRIP): 28 nM
IC50 [1]: 100 to 1000 nM

SMILES: Cc1ccc(-c2cc(N3CCOC[C@H]3C)nc3c(-c4cc[nH]n4)n(C)nc23)cn1 [Compound 14, 2-Methyl-5-((R)-3-methyl-morpholin-4-yl)-7-(6-methyl-pyridin-3-yl)-3-(1H-pyrazol-3-yl)-2H-pyrazolo[4,3-b]pyridine]
IC50 (ATR/ATRIP): 99 nM
IC50 [1]: 1000 to 10000 nM

SMILES: C[C@@H]1COCCN1c1cc(-c2ccnc3[nH]ccc23)c2nn(C)c(-c3cc[nH]n3)c2n1 [Compound 16, 2-Methyl-5-((R)-3-methyl-morpholin-4-yl)-3-(1H-pyrazol-3-yl)-7-(1H-pyrrolo[2,3-b]pyridin-4-yl)-2H-pyrazolo[4,3-b]pyridine]
IC50 (ATR/ATRIP): 67 nM
IC50 [1]: 1000 to 10000 nM

SMILES: C[C@@H]1COCCN1c1ccc2[nH]nc(-c3cc[nH]n3)c2n1 [Compound 56, (3R)-3-Methyl-4-[3-(1H-pyrazol-3-yl)-1H-pyrazolo[4,3-b]pyridin-5-yl]morpholine]
IC50 (ATR/ATRIP): 25 nM
IC50 [1]: 1000 to 10000 nM

SMILES: C[C@@H]1COCCN1c1cc(-c2ccn(CCO)n2)c2c(n1)c(-c1cc[nH]n1)nn2C [Compound 37, 2-{3-[1-Methyl-5-((R)-3-methyl-morpholin-4-yl)-3-(1H-pyrazol-3-yl)-1H-pyrazolo[4,3-b]pyridin-7-yl]-pyrazol-1-yl}-ethanol]
IC50 (ATR/ATRIP): 7.9 nM
IC50 [1]: 100 to 1000 nM

SMILES: Cc1cccc(-c2cc(N3CCOC[C@H]3C)nc3c(-c4cc[nH]n4)nn(C)c23)n1 [Compound 33, 1-Methyl-5-((R)-3-methyl-morpholin-4-yl)-7-(6-methyl-pyridin-2-yl)-3-(1H-pyrazol-3-yl)-1H-pyrazolo[4,3-b]pyridine]
IC50 (ATR/ATRIP): 16 nM
IC50 [1]: 100 to 1000 nM

SMILES: Cc1nc([S@+](C)[O-])ccc1-c1cc(N2CCOC[C@H]2C)nc2c(-c3cc[nH]n3)nn(C)c12 [Compound 9, (3R)-4-(7-{6-[(S)-Methanesulfinyl]-2-methylpyridin-3-yl}-1-methyl-3-(1H-pyrazol-3-yl)-1H-pyrazolo[4,3-b]pyridin-5-yl)-3-methylmorpholine]
IC50 (ATR/ATRIP): 4.1 nM
IC50 [1]: 10 to 100 nM

SMILES: Cc1cccnc1-c1cc(N2CCOC[C@H]2C)nc2c(-c3cc[nH]n3)n[nH]c12 [Compound 39, (3R)-3-Methyl-4-[7-(3-methylpyridin-2-yl)-3-(1H-pyrazol-3-yl)-1H-pyrazolo[4,3-b]pyridin-5-yl]morpholine]
IC50 (ATR/ATRIP): 7.9 nM
IC50 [1]: 100 to 1000 nM

Now those with a lower IC50 (ATR/ATRIP), led by results:

IC50 (ATR/ATRIP): 1.2 nM
IC50 [1]: 100 to 1000 nM
SMILES: COCc1ccc(-c2cc(N3CCOC[C@H]3C)nc3c(-c4cc[nH]n4)nn(C)c23)cc1 [Compound 51, (3R)-4-{7-[4-(Methoxymethyl)phenyl]-1-methyl-3-(1H-pyrazol-3-yl)-1H-pyrazolo[4,3-b]pyridin-5-yl}-3-methylmorpholine]

IC50 (ATR/ATRIP): 1 nM
IC50 [1]: 10 to 100 nM
SMILES: Cc1cnccc1-c1cc(N2CCOC[C@H]2C)nc2c(-c3cc[nH]n3)nn(C)c12 [Compound 23, 1-Methyl-5-((R)-3-methyl-morpholin-4-yl)-7-(3-methyl-pyridin-4-yl)-3-(1H-pyrazol-3-yl)-1H-pyrazolo[4,3-b]pyridine]

IC50 (ATR/ATRIP): 1.9 nM
IC50 [1]: < 10 nM
SMILES: C[C@@H]1COCCN1c1cc(-c2cccnc2C(F)(F)F)c2c(n1)c(-c1cc[nH]n1)nn2C [Compound 66, (3R)-3-Methyl-4-[1-methyl-3-(1H-pyrazol-3-yl)-7-[2-(trifluoro-methyl)pyridin-3-yl]-1H-pyrazolo[4,3-b]pyridin-5-yl]morpholine]

IC50 (ATR/ATRIP): 3.9 nM
IC50 [1]: 100 to 1000 nM
SMILES: C[C@@H]1COCCN1c1cc(C2CC2)c2c(n1)c(-c1ccn[nH]1)nn2C [Compound 43, 7-Cyclopropyl-1-methyl-5-((R)-3-methyl-morpholin-4-yl)-3-(2H-pyrazol-3-yl)-1H-pyrazolo[4,3-b]pyridine]

IC50 (ATR/ATRIP): 0.9 nM
IC50 [1]: 10 to 100 nM
SMILES: Cc1ccc(-c2cc(N3CCOC[C@H]3C)nc3c(-c4cc(C)n[nH]4)n[nH]c23)cn1 [Compound 3, (3R)-3-Methyl-4-[3-(3-methyl-1H-pyrazol-5-yl)-7-(6-methylpyridin-3-yl)-1H-pyrazolo[4,3-b]pyridin-5-yl]morpholine]

IC50 (ATR/ATRIP): 3.3 nM
IC50 [1]: 100 to 1000 nM
SMILES: Cc1ccnc(C)c1-c1cc(N2CCOC[C@H]2C)nc2c(-c3cc[nH]n3)nn(C)c12 [Compound 22, 7-(2,4-Dimethyl-pyridin-3-yl)-1-methyl-5-((R)-3-methyl-morpholin-4-yl)-3-(1H-pyrazol-3-yl)-1H-pyrazolo[4,3-b]pyridine]

IC50 (ATR/ATRIP): 1.4 nM
IC50 [1]: 10 to 100 nM
SMILES: C[C@@H]1COCCN1c1cc(-c2ccc(CO)cc2)c2c(n1)c(-c1cc[nH]n1)nn2C [Compound 52, (4-{1-Methyl-5-[(3R)-3-methylmorpholin-4-yl]-3-(1H-pyrazol-3-yl)-1H-pyrazolo[4,3-b]pyridin-7-yl}phenyl)methanol]

IC50 (ATR/ATRIP): 0.9 nM
IC50 [1]: 1000 to 10000 nM
SMILES: CC(c1cc(N2CCOC[C@H]2C)nc2c(-c3cc[nH]n3)nn(C)c12)S(C)(=O)=O (stereo partly drawn) [Compound 89, (3R)-4-[7-(1-Methanesulfonylethyl)-1-methyl-3-(1H-pyrazol-3-yl)-1H-pyrazolo[4,3-b]pyridin-5-yl]-3-methylmorpholine]
